Measured values reported in patent US20100143462A1, “NEW CARBAMAZEPHINE FORMULATIONS HAVING INPROVED SOLUBILITY” (NUTRALEASE LTD., priority 2004, published 2010).

Experiments:
[1] = Solubilization capacity of microemulsion / concentrate for Carbamazepine; type: physicochemical; settings: 50 wt % aqueous phase (water:PG 1:1), dilution line 7:3, D-limonene:ethanol 1:1, FIG. 2
Protocol: When solubilizing a drug in a microemulsion system, the solubilization capacity should be characterized. […] For the 7:3 dilution line (FIG. 2), the 5 gr oil phase concentrate comprises 0.75 gr of D-limonene, 0.75 gr EtOH (each being 15 wt %), and 3.5 gr Tween 60 (70 wt %). The 5 gr oil concentrate is then diluted in an aqueous phase of water:propylene glycol (1:1). For the 8:2 dilution line (FIG. 3) the 5 gr oil phase concentrate comprises 0.5 gr of D-limonene, 0.5 gr EtOH (each being 10 wt %), and 4 gr Tween 60 (80 wt %). The 5 gr oil concentrate is then diluted in an aqueous phase of water:propylene glycol (1:1). For the 9:1 dilution line (FIG. 4) the 5 gr oil phase concentrate comprises 0.25 gr of D-limonene, 0.25 gr EtOH (each being 5 wt %), and 4 gr Tween 60 (90 wt %). The 5 gr oil concentrate is then diluted in an aqueous phase of water:propylene glycol (1:1).
Preparations of the microemulsions and microemulsion concentrate were done in the following manner. The surfactant and the oil phase were mixed at the appropriate ratio, 7:3, 8:2 and 9:1 respectively, to form the concentrate. The solubilization of the drug in the concentrate was determined by solubilizing it to form clear solutions, until the maximal amount was reached. […]

[2] = following a single oral dose; cited from earlier work

NC(=O)N1c2ccccc2C=Cc2ccccc21 [Carbamazepine, 5H-Dibenz(b,f)azepine-5-carboxamide]
solubilization capacity of microemulsion (solubilized Carbamazepine) [1]: 3.76%
elimination half-life of unchanged Carbamazepine in the plasma [2]: approximately 36 hours
